Columns and labels:
[1] = target: T1, ER α-glucosidase II (Rattus norvegicus, UniProt A0A8I6GFL3); test: ER α-glucosidase II inhibition assay, enzyme prepared from rat liver, 4-nitrophenyl-α-D-glucopyranoside substrate; assay type: biochemical; conditions: for IC50: rat liver enzyme, pH 6.8, 37 °C 30 min, read-out: IC50 ER α-Glcase II
T1 construct: ER α-glucosidase II was prepared from the rat liver; from tissue; host or cells: rat liver
Description: (§1) The inhibitory activity toward lysosomal acid α-glucosidase (GAA) was measured with Myozyme (Genzyme; Boston, MA, USA) as the enzyme source, and 4-methylumbelliferyl-α-D-glucopyranoside (Sigma-Aldrich Co.; St. Louis, Mo, USA) as substrate. The reaction mixture consisted 100 mM McIlvaine buffer (pH 6.8), 0.25% sodium taurocholate and 0.1% Triton X-100 (Nacalai Tesque Inc.; Kyoto, Japan), and the appropriate amount of enzyme. The reaction mixture was pre-incubated at 0 °C for 45 min, and the reaction was started by the using 4 mM substrate solution, followed by incubation at 37 °C for 30 min. The reaction was stopped by the addition of 1.6 mL of the solution of 400 mM Glycine-NaOH solution (pH 10.6). The released 4-methylumbelliferone was measured (excitation 362 nm, emission 450 nm) with a F-4500 fluorescence spectrophotometer (Hitachi, Tokyo, Japan). ER α-glucosidase II was prepared from the rat liver according to the method of Hino et al.. For ER α-glucosidase II activities, 4-nitrophenyl-α-D-glucopyranoside (Sigma-Aldrich Co.; St. Louis, MO, USA) was used as substrate. The reaction mixture contained phosphate buffer (pH 6.8), 0.25% sodium taurocholate, and the appropriate amount of enzyme. The reaction mixture was pre-incubated at 0 °C for 30 min, and the reaction was started by the using 4 mM substrate solution, followed by incubation at 37 °C for 30 min. The reaction was stopped by adding 0.4 mL of 400 mM Na2CO3. The released p-nitrophenol was measured spectrometrically at 400 nm.

[2] = target: T2, lysosomal acid α-glucosidase (GAA) (Homo sapiens, UniProt P10253); test: Lysosomal acid α-glucosidase (GAA) inhibition assay, Myozyme as enzyme source, 4-methylumbelliferyl-α-D-glucopyranoside substrate; assay type: biochemical; conditions: for IC50: Myozyme, pH 6.8, 37 °C 30 min; for Selectivity Index ER α-Glcase II/GAA: ratio of IC50 ER α-glucosidase II / IC50 GAA
T2 construct: purchased Genzyme
Description: as §1

[3] = target: T2, lysosomal acid α-glucosidase (GAA); test: In vitro thermostability of GAA at 47 °C, remaining enzyme activity; assay type: biochemical; conditions: 10 µM compound, pH 6.8, incubation 60 min
Description: GAA was incubated in 100 mM McIlvaine buffer (pH 6.8) containing 0.25% sodium taurocholate and 0.1% Triton X-100 for 0, 20, 40, and 60 min, and the remaining enzyme activity was determined with 4-methylumbelliferl-α-D-glucopyranoside as substrate. The enzyme activity was 83% lost within 60 min under incubation without test samples, while the incubation with α-1-C-heptyl-LAB effectively stabilized GAA. The enzyme activity remained over 94% even under the incubation for 60 min in the presence of 10 µM α-1-C-heptyl-LAB (Figure 8). […] In contrast, 10 µM α-1-C-ethyl-LAB could not sufficiently protect the enzyme activity (50% activity remained at 60 min).
GAA was incubated at 47 °C in 100 mM sodium citrate buffer (pH 6.8) containing 1 mg/mL of bovine serum albumin (BSA) at various incubation times with or without iminosugars. Each value represents the mean ± SEM (n = 3).
The enzyme GAA was incubated at 47 °C in 100 mM McIlvaine buffer (pH 6.8) containing 0.25% sodium taurocholate and 0.1% Triton X-100 for 0, 20, 40, and 60 min. After incubation, the remaining GAA activity was assayed immediately using 4 mM 4-methylumbelliferyl-α-D-glucopyranoside as substrate.

[4] = target: Jack bean α-mannosidase; design: method as in PMID 15771446; conditions: Figure 1; cited from earlier work
[5] = target: lysosomal α-galactosidase A; design: method as in PMID 15771446; conditions: Figure 1; cited from earlier work

T1 sequence (A0A8I6GFL3 33-944): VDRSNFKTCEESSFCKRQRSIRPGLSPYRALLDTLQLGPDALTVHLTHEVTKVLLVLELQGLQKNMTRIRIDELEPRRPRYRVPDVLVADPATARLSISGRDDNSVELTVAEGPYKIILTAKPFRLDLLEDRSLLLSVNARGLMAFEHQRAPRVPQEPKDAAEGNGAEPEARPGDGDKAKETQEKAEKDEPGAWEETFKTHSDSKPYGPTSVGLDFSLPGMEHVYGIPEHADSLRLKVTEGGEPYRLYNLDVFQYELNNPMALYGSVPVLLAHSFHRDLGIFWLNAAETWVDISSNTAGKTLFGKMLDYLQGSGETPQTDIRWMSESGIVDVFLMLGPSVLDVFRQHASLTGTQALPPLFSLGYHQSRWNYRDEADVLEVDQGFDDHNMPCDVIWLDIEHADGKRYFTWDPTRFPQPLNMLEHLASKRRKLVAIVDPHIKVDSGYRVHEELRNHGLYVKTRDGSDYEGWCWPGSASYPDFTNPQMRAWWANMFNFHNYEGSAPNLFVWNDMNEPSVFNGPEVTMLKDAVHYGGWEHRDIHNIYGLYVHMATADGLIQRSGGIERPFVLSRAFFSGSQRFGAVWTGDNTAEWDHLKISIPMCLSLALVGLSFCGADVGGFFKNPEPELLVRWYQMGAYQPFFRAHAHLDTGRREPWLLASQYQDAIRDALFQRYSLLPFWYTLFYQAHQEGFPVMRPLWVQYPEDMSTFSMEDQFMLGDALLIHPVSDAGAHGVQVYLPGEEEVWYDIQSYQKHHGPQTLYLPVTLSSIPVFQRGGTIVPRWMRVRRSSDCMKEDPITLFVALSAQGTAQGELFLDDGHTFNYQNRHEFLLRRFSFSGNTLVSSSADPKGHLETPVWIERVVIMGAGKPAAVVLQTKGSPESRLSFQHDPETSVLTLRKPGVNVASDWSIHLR

Compound	IC50 [1]	IC50 [2]	Selectivity Index ER α-Glcase II/GAA [2]	further results
OC[C@H]1NC[C@H](O)[C@@H](O)[C@@H]1O [DNJ, 1,5-Dideoxy-1,5-imino-D-glucitol, reference compound]	8 ± 0.55 µM			
CCCCC[C@@H]1N[C@@H](CO)[C@H](O)[C@H]1O [α-1-C-Pentyl-LAB]	180 ± 19 µM	1.1 ± 0.088 µM	163.6	
OC[C@@H]1NC[C@H](O)[C@H]1O [LAB, 1,4-Dideoxy-1,4-imino-L-arabinitol]	2.8 ± 0.22 µM			GAA enzyme activity remained [3]: 89%; Inhibition potency of GAA, times weaker than DNJ ([2]; relative to DNJ): 3.5 times
CCCCCC[C@@H]1N[C@@H](CO)[C@H](O)[C@H]1O [α-1-C-Hexyl-LAB]	100 ± 6.2 µM	0.71 ± 0.029 µM	140.8	
OC[C@H]1NC[C@@H](O)[C@@H](O)[C@@H]1O [DMJ, 1,5-dideoxy-1,5-imino-D-mannitol]				IC50 [4]: 774 µM
CCCC[C@@H]1N[C@@H](CO)[C@H](O)[C@H]1O [α-1-C-Butyl-LAB]	228 ± 13 µM	1.6 ± 0.04 µM	142.5	
CC[C@@H]1N[C@@H](CO)[C@H](O)[C@H]1O [α-1-C-Ethyl-LAB]	541 ± 26 µM	11 ± 1.1 µM	49.2	GAA enzyme activity remained [3]: 50%; Inhibition of GAA, fold lower than LAB ([2]; relative to LAB): 21 fold; Inhibition of ER α-glucosidase II, fold weaker than LAB ([1]; relative to LAB): 193 fold
OC[C@H]1NC[C@H](O)[C@@H](O)[C@H]1O [DGJ, 1,5-dideoxy-1,5-imino-D-galactitol]				IC50 [5]: 0.07 µM
CCC[C@@H]1N[C@@H](CO)[C@H](O)[C@H]1O [α-1-C-Propyl-LAB]	413 ± 50 µM	7.4 ± 0.31 µM	55.8	
C[C@@H]1N[C@@H](CO)[C@H](O)[C@H]1O [α-1-C-Methyl-LAB]	26 ± 2 µM	2 ± 0.12 µM	13.0	
CCCCCCC[C@@H]1N[C@@H](CO)[C@H](O)[C@H]1O [α-1-C-Heptyl-LAB, α-1-C-heptyl-1,4-dideoxy-1,4-imino-L-arabinitol]	74 ± 3.7 µM	0.44 ± 0.044 µM	168.2	GAA enzyme activity remained [3]: over 94%; Selectivity index, fold better relative to the parent LAB ([2]; relative to LAB): 31 fold

From publication PMC7357040, “Strategy for Designing Selective Lysosomal Acid α-Glucosidase Inhibitors: Binding Orientation and Influence on Selectivity” (Molecules, 2020)
